{"source": "patent US5358712A", "about": "“Radiopharmaceutical agents for the detection of Alzheimer's disease” (Regents of the University of Minnesota, priority 1993, dated 1994)", "key": {"vesamicol receptor [1]": {"biological_target": "T1, vesamicol receptor (Tetronarce californica, UniProt P81721)", "T1 construct": "no ATP or acetylcholine", "T1 sequence (P81721 1-515)": "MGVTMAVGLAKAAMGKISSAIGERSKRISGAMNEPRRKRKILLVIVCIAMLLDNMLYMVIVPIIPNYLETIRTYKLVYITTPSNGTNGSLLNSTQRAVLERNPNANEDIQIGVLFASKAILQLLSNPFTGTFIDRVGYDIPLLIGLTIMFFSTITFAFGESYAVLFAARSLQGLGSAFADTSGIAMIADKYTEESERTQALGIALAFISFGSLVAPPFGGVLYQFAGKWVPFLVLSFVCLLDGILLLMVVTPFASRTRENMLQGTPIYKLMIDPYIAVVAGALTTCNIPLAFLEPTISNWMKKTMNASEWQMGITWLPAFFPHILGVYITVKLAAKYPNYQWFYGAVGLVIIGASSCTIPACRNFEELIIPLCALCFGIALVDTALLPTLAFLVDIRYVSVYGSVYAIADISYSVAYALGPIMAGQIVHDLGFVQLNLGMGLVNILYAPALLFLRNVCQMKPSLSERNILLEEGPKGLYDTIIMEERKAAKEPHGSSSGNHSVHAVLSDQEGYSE", "experiment": "Binding affinities of aminoalcohols at the vesamicol receptor (purified cholinergic synaptic vesicles)", "parameters": "species or system Torpedo californica", "method": "The compounds were evaluated in a purified preparation of cholinergic synaptic vesicles isolated from the electric organ of Torpedo californica. A full description of this assay was described earlier. However, the present study was carried out in the absence of ATP and acetylcholine. […] Nonlinear regression analysis was carried out with MINSQ (MicroMath Scientific Software, Salt Lake City, Utah.). Protein content was determined by the method of Bradford, using a bovine serum albumin standard.\n^a The compounds were tested as the corresponding hydrochlorides,\nusing highly purified synaptic vesicles obtained from the electric organ\nof Torpedo Californica, following a procedure described earlier (8)."}, "vesamicol receptor [2]": {"test_system": "vesamicol receptor", "settings": "rodent brain; cited from earlier work"}, "vesamicol receptor [3]": {"test_system": "vesamicol receptor", "experiment": "Ligand displacement studies in vivo", "parameters": "species or system rat (male Wistar)", "settings": "rat, vesamicol iv 30 minutes after radiotracer", "method": "To determine if vesamicol could displace bound [^125 I]5 in vivo, a blocking dose of vesamicol was injected intravenously 30 minutes following the administration of (-)-[^125 I]5.\nTwo groups of male Wistar rats (n=3) were used in this study. Each animal initially received, while under anesthesia, an iv dose of (-)-5, (9.5 μCi) in 0.1 ml of 50% aqueous ethanol. After 30 min. the control group received an iv dose of 50% aqueous ethanol (0.1 ml) while the second group received an iv dose of (dl)-vesamicol hydrochloride (1.1 μmol/kg) in 0.1 ml of 50% aqueous ethanol. All animals were sacrificed, as described above, at one hour following radiotracer injection. Data was analyzed as described above."}, "[4]": {"test_system": "rodents and other laboratory animals", "settings": "cited from earlier work"}, "[5]": {"test_system": "vesicular acetylcholine storage", "settings": "cited from earlier work"}, "vesamicol receptor [6]": {"test_system": "vesamicol receptor", "experiment": "Blocking experiments: inhibition of radiotracer accumulation in the rat by coadministered compound", "type": "in vivo, rat (male Wistar)", "settings": "rat", "summary_of_the_method": "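Male Wistar rats (n=3/group) got iv radiotracer, alone or coadministered with blocker (e.g. (+)/(−)-HBrPP·HCl 1.3 μmol/kg, vesamicol·HCl 1.1 μmol/kg, or 0.31–0.53 mg/kg in other series). Blood and tissues taken 60 min post-injection to assess radiotracer accumulation.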"}, "vesamicol receptor [7]": {"test_system": "vesamicol receptor", "settings": "cited from earlier work"}, "monkey brain": {"test_system": "monkey brain", "experiment": "Brain imaging study (SPECT)", "type": "in vivo", "settings": "cynomolgus monkey", "method": "These studies were conducted with a Picker 3-head PRISM camera equipped with a high-resolution fan beam collimator. A 5-Kg male cynomolgus monkey, anesthetized with halothane, received an intravenous dose of 12 mCi of (-)-4-[^123 I]HIPP ((-)-[^123 I]5) in 1 ml of 50% ethanol-isotonicsaline. Data acquisition which commenced simultaneously, in the \"step and shoot\" mode, was divided into one 5minute segment, six 10-minute segments and a final 20-minute segment. At 18 hours post-injection, data was acquired under similar conditions for both the head and the heart, over a 20 minute period. For cardiac imaging, the camera was equipped with a medium-energy-parallel-hole collimator. The data was subsequently processed to obtain both a time-activity curve and images in the transaxial and sagittal planes. To obtain an estimate of the fractional accumulation of (-)-4-^123 I]HIPP in the monkey brain, a phantom filled consecutively with varying concentrations of aqueous Na^125 I was counted with the gamma camera to generate a standard curve."}, "[8]": {"experiment": "Tissue distribution (biodistribution) of radioiodinated compound in the rat", "settings": "rat", "procedure": "(§1) Four groups of male Wistar rats (with four animals per group) weighing 200-350 g were used in these experiments. Each animal received, while under ether anesthesia, an intravenous injection of the radiotracer (10-20 μCi) dissolved in 0.1 ml of 50% aqueous ethanol. At 5, 30, and 60 and 180 min. post-injection, blood was collected from the anesthetized animals by cardiac puncture, and the animal was immediately sacrificed by cardiectomy. The organs and tissues of interest were harvested, transferred to preweighed tubes and counted in a Beckman gamma counter. The tubes were subsequently reweighed to give the weight of the corresponding tissues. Preweighed tubes containing ^1 -ml samples of a 1:100 dilution of the injection dose were also counted and used as reference for calculating the tissue accumulation of radioactivity. The accumulation of radiotracer was expressed as a percentage of injected dose per gram of tissue."}, "[9]": {"settings": "rat", "procedure": "as §1"}, "[10]": {"settings": "iv, 60 min, + (dl)-vesamicol HCl 0.3 (Table 3) or 0.31 mg/kg, 60 min"}, "[11]": {"settings": "iv, 60 min, radiotracer only (control)"}}}
{"compound": "OC(CN1CCC(c2ccccc2)CC1)c1ccc(Br)cc1", "note": "(racemic) [Compound 15i, (dl)-1-(4-Bromophenyl)-2-(4-phenylpiperidinyl)ethanol]", "values": [{"measurement": "binding to the vesamicol receptor (in words)", "setting": "vesamicol receptor [1]", "value": "equipotent with (dl)-vesamicol"}]}
{"compound": "O[C@@H]1CCCC[C@H]1N1CCC(c2ccccc2)CC1", "note": "(relative stereo) [[^3 H]vesamicol]", "values": [{"measurement": "cortical [^3 H]vesamicol binding after lesioning a known cholinergic pathway", "setting": "vesamicol receptor [2]", "value": "significant decrease"}, {"measurement": "distribution relative to other markers of cholinergic innervation", "setting": "vesamicol receptor [2]", "value": "correlate well"}]}
{"compound": "OC(Cc1ccc(Br)cc1)CN1CCC(c2ccccc2)CC1", "note": "(single isomer, unassigned; (-)) [(-)-15a, 3-(4-Bromophenyl)-2-hydroxy-1-[1-(4-phenylpiperidinyl)]propane]", "values": [{"measurement": "binding to the vesamicol receptor (in words)", "setting": "vesamicol receptor [1]", "value": "essentially equipotent with vesamicol"}]}
{"compound": "O[C@@H]1CCCC[C@H]1N1CCC(c2ccccc2)CC1", "note": "(relative stereo) [vesamicol, trans-2-(4-phenylpiperidino)cyclohexanol]", "values": [{"measurement": "displacement of bound (-)-[^125 I]5 radioactivity from brain or heart", "setting": "vesamicol receptor [3]", "value": "fails to displace"}, {"measurement": "displacement of bound (-)-[^125 I]5 radioactivity from brain or heart", "setting": "vesamicol receptor [3]; listed as (dl)-vesamicol", "value": "can not readily displace"}, {"measurement": "respiratory paralysis and death", "setting": "[4]", "value": "induces respiratory paralysis and death"}, {"measurement": "inhibition of ACh uptake into cholinergic synaptic vesicles and of quantal release", "setting": "[5]", "value": "inhibit both the uptake of ACh into cholinergic synaptic vesicles and quantal release"}, {"measurement": "blocking of the accumulation of [^125 I]5 in vivo, relative potency", "setting": "vesamicol receptor [6]; vesamicol 1.1 μmol/kg, (+)-7 and (-)-7 1.3 μmol/kg, coadministered", "value": "equipotent"}, {"measurement": "dissociation from the receptor", "setting": "vesamicol receptor [7]", "value": "dissociate too quickly"}, {"measurement": "reversibility of binding to the vesamicol receptor", "setting": "vesamicol receptor [7]", "value": "binds reversibly"}]}
{"compound": "OC(Cc1cccc(I)c1)CN1CCC(c2ccccc2)CC1", "note": "(single isomer, unassigned; (+)) [Compound 15j, (+)-2-Hydroxyl-3-(3-iodophenyl)-1-[1-(4-phenylpiperidinyl)]propane]", "values": [{"measurement": "Kd", "setting": "vesamicol receptor [1]; synaptic vesicles from electric organ of Torpedo californica, tested as hydrochloride", "value": "73 ± 11", "unit": "nM"}]}
{"compound": "OC(Cc1ccc([123I])cc1)CN1CCC(c2ccccc2)CC1", "note": "(single isomer, unassigned; (-)) [(-)-4-[^123 I]HIPP, 2-Hydroxy-3-(4-iodophenyl)-1-(4-phenylpiperidyl)propane]", "values": [{"measurement": "brain activity relative to surrounding tissues", "setting": "monkey brain; 11/2 and 18 hours post-injection", "value": "high levels of activity"}, {"measurement": "t-1/2 in the monkey brain", "setting": "monkey brain; iv", "value": 9, "unit": "h"}, {"measurement": "accumulation within the brain", "setting": "monkey brain; iv, estimated", "value": "~3 % of the injected dose"}]}
{"compound": "OC(CN1CCC(c2ccccc2)CC1)c1ccc([125I])cc1", "note": "(single isomer, unassigned; (+)) [(+)-[^125 l]13] [1-(4-Iodophenyl)-2-(4-phenylpiperidinyl)ethanol]", "values": [{"measurement": "decrease of concentration in the brain", "setting": "[8]; 3 hours post-injection vs initial, listed as (+)[^123 I]13", "value": 35, "unit": "%"}, {"measurement": "initial accumulation in the rat brain", "setting": "[8]; initial, listed as (+)-[^125 I]13", "value": "2.75 % of the injected dose"}, {"measurement": "Brain: Blood Ratio", "setting": "[8]; iv, 5 min", "value": 14.8}, {"measurement": "Heart: Blood Ratio", "setting": "[8]; iv, 5 min", "value": 13.8}, {"measurement": "Brain: Blood Ratio", "setting": "[8]; iv, 60 min", "value": 41.7}, {"measurement": "Heart: Blood Ratio", "setting": "[8]; iv, 60 min", "value": 8.2}, {"measurement": "radioactivity in lung", "setting": "[8]; iv, 60 min", "value": 1.77, "unit": "% dose/g"}, {"measurement": "Brain: Blood Ratio", "setting": "[8]; iv, 180 min", "value": 37.4}, {"measurement": "Heart: Blood Ratio", "setting": "[8]; iv, 180 min", "value": 5.7}, {"measurement": "radioactivity in blood", "setting": "[8]; iv, 180 min", "value": 0.02, "unit": "% dose/g"}, {"measurement": "radioactivity in brain", "setting": "[8]; iv, 180 min", "value": 0.93, "unit": "% dose/g"}, {"measurement": "radioactivity in heart", "setting": "[8]; iv, 180 min", "value": 0.14, "unit": "% dose/g"}, {"measurement": "radioactivity in kidney", "setting": "[8]; iv, 180 min", "value": 1.53, "unit": "% dose/g"}, {"measurement": "radioactivity in liver", "setting": "[8]; iv, 180 min", "value": 1.97, "unit": "% dose/g"}, {"measurement": "radioactivity in lung", "setting": "[8]; iv, 180 min", "value": 0.62, "unit": "% dose/g"}, {"measurement": "radioactivity in muscle", "setting": "[8]; iv, 180 min", "value": 0.13, "unit": "% dose/g"}, {"measurement": "radioactivity in spleen", "setting": "[8]; iv, 180 min", "value": 0.77, "unit": "% dose/g"}, {"measurement": "efflux from the brain", "setting": "[9]", "value": "much slower"}, {"measurement": "Brain: Blood Ratio", "setting": "vesamicol receptor [6]; [10]", "value": 7.02}, {"measurement": "Heart: Blood Ratio", "setting": "vesamicol receptor [6]; [10]", "value": 2.48}, {"measurement": "radioactivity in blood", "setting": "vesamicol receptor [6]; [10]", "value": "0.03 % dose/g of tissue"}, {"measurement": "Brain: Blood Ratio", "setting": "vesamicol receptor [6]; [11]", "value": 17.86}, {"measurement": "Heart: Blood Ratio", "setting": "vesamicol receptor [6]; [11]", "value": 4.41}]}
